The supplement of paper PMC10307832

Assays:
Assay in all cases: relative viability (nuclei count vs DMSO), 5 days (fraction); higher = more cells survive
Dabrafenib + Dasatinib = compound: CC(C)(C)c1nc(-c2cccc(NS(=O)(=O)c3c(F)cccc3F)c2F)c(-c2ccnc(N)n2)s1 [Dabrafenib] + Cc1nc(Nc2ncc(C(=O)Nc3c(C)cccc3Cl)s2)cc(N2CCN(CCO)CC2)n1 [Dasatinib] (partner 0.075 µM)
Outline: (§1)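 Medians of duplicate plates are given as relative viability. That measure is the nuclei count in treated wells divided by the count in vehicle wells. Counts were taken on 4× images of lung cancer cell lines in 1536-well plates, 5 days after pin-tool dosing the day after seeding with one drug alone or a fixed anchor-drug dose plus five library-drug doses (not always all listed) in √10 steps.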

VX-702 + Trametinib = compound: NC(=O)c1ccc(N(C(N)=O)c2c(F)cccc2F)nc1-c1ccc(F)cc1F [VX-702] + CC(=O)Nc1cccc(-n2c(=O)n(C3CC3)c(=O)c3c(Nc4ccc(I)cc4F)n(C)c(=O)c(C)c32)c1 [Trametinib] (partner 0.02 µM)
Outline: as §1

VX-702 + Foretinib = compound: NC(=O)c1ccc(N(C(N)=O)c2c(F)cccc2F)nc1-c1ccc(F)cc1F [VX-702] + COc1cc2c(Oc3ccc(NC(=O)C4(C(=O)Nc5ccc(F)cc5)CC4)cc3F)ccnc2cc1OCCCN1CCOCC1 [Foretinib] (partner 0.25 µM)
Outline: as §1

VX-702 + Pictilisib = compound: NC(=O)c1ccc(N(C(N)=O)c2c(F)cccc2F)nc1-c1ccc(F)cc1F [VX-702] + CS(=O)(=O)N1CCN(Cc2cc3nc(-c4cccc5[nH]ncc45)nc(N4CCOCC4)c3s2)CC1 [Pictilisib] (partner 1 µM)
Outline: as §1

Row | Cell Line | relative viability (Dabrafenib + Dasatinib; first compound 0.009487 µM) | relative viability (Dabrafenib + Dasatinib; first compound 0.03 µM) | relative viability (Dabrafenib + Dasatinib; first compound 0.09487 µM) | relative viability (Dabrafenib + Dasatinib; first compound 0.3 µM) | relative viability (VX-702 + Trametinib; first compound 0.02 µM) | relative viability (VX-702 + Trametinib; first compound 0.2 µM) | relative viability (VX-702 + Trametinib; first compound 0.6325 µM) | relative viability (VX-702 + Trametinib; first compound 2 µM) | relative viability (VX-702 + Foretinib; first compound 0.02 µM) | relative viability (VX-702 + Foretinib; first compound 0.2 µM) | relative viability (VX-702 + Foretinib; first compound 0.6325 µM) | relative viability (VX-702 + Foretinib; first compound 2 µM) | relative viability (VX-702 + Pictilisib; first compound 0.02 µM) | relative viability (VX-702 + Pictilisib; first compound 0.2 µM) | relative viability (VX-702 + Pictilisib; first compound 0.6325 µM) | relative viability (VX-702 + Pictilisib; first compound 2 µM) | relative viability (Dabrafenib + Dasatinib; first compound 0.003 µM)
1 | NCI-H596 | 0.624 | 0.742 | 0.544 | 0.646 | 0.908 | 0.832 | 0.835 | 0.886 | 0.79 | 0.82 | 1.11 | 0.992 | 0.398 | 0.246 | 0.392 | 0.389 | –
2 | NCI-H647 | 0.161 | 0.305 | 0.188 | 0.159 | 0.555 | 0.571 | 0.497 | 0.678 | 1.22 | 1.08 | 1 | 1.4 | 0.479 | 0.432 | 0.461 | 0.644 | 0.0445
3 | NCI-H650 | 0.332 | 0.402 | 0.314 | 0.294 | 0.92 | 0.978 | 1.1 | 1.08 | 1.01 | – | 1.11 | 1.25 | 0.745 | – | 0.821 | 1.05 | –
4 | NCI-H661 | 0.821 | 1.04 | 0.921 | 1.06 | 0.682 | 0.599 | 0.637 | 0.71 | 1.11 | 1.08 | 1.12 | 1.1 | 0.395 | 0.458 | 0.426 | 0.421 | 0.591
5 | NCI-H727 | 0.479 | 0.434 | – | 0.568 | 0.387 | 0.381 | 0.382 | 0.359 | 0.936 | 0.806 | 0.824 | 0.813 | 0.343 | 0.302 | 0.382 | 0.356 | –
6 | NCI-H838 | 0.287 | – | 0.364 | 0.279 | 0.535 | 0.521 | 0.525 | 0.6 | 1.02 | 1.01 | 1.13 | 1.2 | 0.467 | 0.408 | 0.517 | 0.47 | 0.254
7 | NCI-H1355 | 0.692 | 0.749 | 0.651 | 0.703 | 0.464 | 0.38 | 0.368 | 0.416 | 0.931 | 1.01 | 0.923 | 1.01 | 0.514 | 0.439 | 0.338 | 0.46 | –
8 | NCI-H1395 | 0.462 | 0.396 | 0.409 | 0.366 | 1.06 | 1.11 | 1.09 | 1.24 | 0.986 | 1.03 | 0.968 | 1.12 | 0.572 | 0.595 | 0.607 | 0.662 | 0.375
9 | NCI-H1437 | 0.372 | 0.256 | 0.39 | 0.482 | 0.519 | 0.447 | 0.464 | 0.497 | 1.31 | 1.3 | 1.35 | 1.41 | 0.499 | 0.428 | 0.446 | 0.53 | 0.281
10 | NCI-H1650 | 0.376 | 0.425 | 0.327 | 0.378 | 0.599 | 0.725 | 0.656 | 0.501 | 1.04 | 1.17 | 1.02 | 1.29 | 0.641 | 0.326 | 0.596 | 0.586 | 0.263
11 | NCI-H1651 | 0.411 | 0.373 | 0.442 | 0.435 | 0.747 | 0.822 | 0.819 | 0.884 | 0.814 | 0.794 | 0.824 | 0.803 | 0.649 | 0.645 | 0.668 | 0.57 | 0.355
12 | NCI-H1666 | 0.775 | 0.798 | 0.809 | 0.822 | 0.89 | 0.819 | 0.883 | 0.739 | 0.992 | – | 1.02 | 1.06 | 0.513 | 0.439 | 0.454 | 0.263 | 0.84
13 | NCI-H1734 | 0.478 | 0.454 | 0.313 | 0.387 | 0.734 | 0.683 | 0.544 | 0.68 | 0.791 | 0.729 | 0.704 | 0.813 | 0.516 | 0.388 | 0.388 | 0.346 | –
14 | NCI-H1755 | 0.38 | 0.405 | 0.403 | 0.337 | 0.841 | 0.799 | 0.838 | 0.869 | 0.93 | 0.952 | 0.807 | 0.944 | 0.395 | 0.389 | 0.409 | 0.486 | 0.419
15 | NCI-H1793 | 0.503 | – | – | 0.399 | 0.438 | – | 0.452 | 0.451 | 0.671 | 0.705 | 0.703 | 0.719 | 0.311 | 0.262 | 0.389 | 0.252 | –
16 | NCI-H1915 | 0.318 | 0.386 | 0.296 | 0.345 | 0.324 | 0.294 | 0.302 | 0.319 | 1.1 | 1.06 | 1.06 | 1.17 | 1.14 | 0.848 | 0.949 | 1.1 | 0.316
17 | NCI-H1944 | 0.24 | 0.236 | 0.244 | 0.178 | 0.426 | 0.401 | 0.398 | 0.378 | 0.812 | 0.821 | 0.798 | 0.71 | 0.362 | 0.333 | 0.326 | 0.284 | 0.197
18 | NCI-H1975 | 0.345 | 0.363 | 0.344 | 0.392 | 0.383 | 0.35 | 0.29 | 0.329 | 0.969 | 0.915 | 0.943 | 1.09 | 0.27 | 0.283 | 0.384 | 0.316 | 0.372
